Here are results for six compounds from patent US20240108001A1, “Antibacterial Composition” (LG Chem, Ltd., priority 2021, published 2024).

One series relates to 3T3. Kind of series: Acute oral toxicity dose LD50 by 3T3 Neutral Red Uptake (NRU) assay (OECD Guidance Document No 129). The format is cell-based. To be noted: LD50 calculated from 3T3 NRU assay (OECD GD 129). The method, then: The acute oral toxicity dose LD50 was measured by 3T3 Neutral Red Uptake (NRU) assay (OECD Guidance Document No 129). Specifically, LD50 may be calculated by the following method.

Series [1] can be described thus: Critical micelle concentration from surface tension at each concentration (Method 5, Du Nouy ring, force tensiometer). The format is physicochemical. The note with it: aqueous solutions, measurement repeated three times. The method, then:
A solution comprising the compound comprising quaternary ammonium structure is prepared, and the surface tension of the solution is measured at each concentration. A calibration curve of the surface tension at each concentration is obtained, and the critical micelle concentration of the compound comprising the quaternary ammonium structure is obtained therefrom.
In this case, the surface tension at each concentration may be measured using a surface tension meter (force tensiometer) and a Du Nouy ring method.
In addition, the solution may use a solvent such as distilled water, but the solvent is not limited thereto.
The critical micelle concentrations of Monomers 2 and 3 and Comparative Monomer 2 were measured by Method 5, and are shown in the following Table 4 and FIGS. 4 to 6. More specifically, aqueous solutions (30 mL) were prepared for each concentration of Monomers 2 and 3 and Comparative Monomer 2, and the surface tension was measured using the Du Nouyring method of a force tensiometer. Each measurement was repeated three times. The surface tension was measured by preparing diluted solutions until the surface tension was similar to deionized water. The critical micelle concentration (CMC) was confirmed by confirming through the change in surface tension with concentration that each aqueous solution formed a micelle.

For `C=CC(=O)OCC[N+](CCCC)(CCCC)CCCCCC` [Comparative Monomer 1, reference compound], the “Acute oral toxicity dose (mg/Kg) LD50” value in the series on 3T3 is on record as 2,355 mg/Kg.

For the compound `C=CC(=O)OCC[N+](CCCCCCCCCCCCCC)(CCCCCCCCCCCCCC)CCCCCCCCCCCCCC` [Comparative Monomer 2, reference compound], in the series with 3T3, the “Acute oral toxicity dose (mg/Kg) LD50” value is 231 mg/kg. Further, the “Critical micelle concentration (wt %)” value in series [1] amounted to 0.06 ± 0.01 wt %.

Consider `C=CC(=O)OCC[N+](CCCC)(CCCC)CCCCCCCCCC` [Monomer 2], for which, in series [1], the “Critical micelle concentration (wt %)” value was 1.5 ± 0.3 wt %.

With `C=CC(=O)OCC[N+](CCCC)(CCCC)CCCCCCCCCCCC` [Monomer 3], the “Acute oral toxicity dose (mg/Kg) LD50” value in the series with 3T3 was 843 mg/kg. In series [1], the “Critical micelle concentration (wt %)” value is recorded as 0.25 ± 0.05 wt %.

Turning to `C=C(C)C(=O)OCC[N+](CCCC)(CCCCCCCC)CCCCCCCCCC` (centres unmarked) [Monomer 7], the “Acute oral toxicity dose (mg/Kg) LD50” value in the series with 3T3 is 998 mg/kg.

As to `C=C(C)C(=O)OCC[N+](CCCC)(CCCCCCCCCC)CCCCCCCCCC` [Monomer 8], the “Acute oral toxicity dose (mg/Kg) LD50” value with 3T3 was 869 mg/kg.
